# How the values were obtained:
# [1] = biological target: T1, rat BG2-2 (Rattus norvegicus, UniProt Q9QYN8); experiment: N-α-methylhistamine binding experiment on membrane fraction of COS7 cells expressing rat BG2-2; design: Vectors expressing each BG2 receptor were prepared using pEF1x; expressed in transfected cells; host or cells: COS7 cells (membrane fraction)
# Description: (§1) Vectors expressing each BG2 receptor were prepared using pEF1x (Biochemical and Biophysical Research Communications, 1998, 250:68-71). Each BG2 expression vector was introduced into COS7 cells by lipofection method. Genes were introduced using Lipofectamine PLUS reagent (GIBCO-BRL) according to the attached manual.
# (§2) The cells were cultured at 37° C. for 24 hours in Dulbecco MEM medium (Asahi Techno Glass) to which fetal calf serum (Sigma) was added at a final concentration of 10%, in an incubator in which CO2 concentration was adjusted to 5%. Then, the cells were used for preparing a membrane fraction for the histamine binding experiment.
# (§3) The cells into which each BG2 receptor-expressing vector was introduced were crushed in 50 mM Tris-HCl pH 7.4 solution according to the standard method, uncrushed cells were removed by centrifuging at 1,000 g for 10 min, and supernatant was centrifuged at 100,000 g for 10 min to obtain a membrane fraction. The membrane fraction was resuspended in the 50 mM Tris-HCl pH 7.4 solution and centrifuged twice at 100,000 g for 10 min to finally obtain the membrane fraction. The membrane fraction obtained in this manner was suspended in 50 mM Tris-HCl pH 7.4 solution and used for the binding experiment.
# (§4) By using N-α-methylhistamine, a histamine analogue agonist, the binding experiment was conducted and the binding constants were determined (Table 2). […]
# [2] = biological target: T2, human BG2 (Homo sapiens, UniProt Q9Y5N1); experiment: N-α-methylhistamine binding experiment on membrane fraction of COS7 cells expressing human BG2; design: the G protein-coupled receptor protein encoded by the isolated human BG2 cDNA, the present inventors prepared cells expressing the protein; expressed in transfected cells
# Description: as §1, §2, §3, §4
# [3] = biological target: T3, rat BG2 (Rattus norvegicus, UniProt Q9QYN8); experiment: N-α-methylhistamine binding experiment on membrane fraction of COS7 cells expressing rat BG2; design: succeeded in isolating a full-length cDNA (rat BG2 cDNA) encoding a rat G protein-coupled receptor; expressed in transfected cells; host or cells: COS7 cells (membrane fraction)
# Description: as §1, §2, §3, §4
# [4] = biological target: T2, human BG2; experiment: Intracellular cAMP measurement by CRE-β-lactamase reporter (method of Zlokarmik et al.) in human BG2-expressing HEK 293 cells with forskolin; format: cell-based; design: the G protein-coupled receptor protein encoded by the isolated human BG2 cDNA, the present inventors prepared cells expressing the protein; expressed in transfected cells; host or cells: HEK 293 cells carrying a CRE-beta-lactamase reporter (Aurora), hygromycin-selected; conditions: drug 1 μg/ml, forskolin 0.5 μM
# Description: This human BG2 expression vector was introduced by lipofection method into HEK 293 cells in which β-lactamase gene was ligated downstream of CRE sequence (purchased from Aurora). For introducing the gene, Lipofectamine PLUS reagent (GIBCO-BRL) was used and the experimental manipulation was performed according to the attached manual.
# Human BG2-expressing cells were selected by placing cells in a medium containing hygromycin, and cells which grew in the medium were used for a functional assay as human BG2-expressing cells.
# [5] = biological target: T3, rat BG2; conditions: 10 μM forskolin; various histamine concentrations; 15 min; rat BG2-expressing cells
# Description: (§5) HEK293-CRE-BLA cells (Aurora) were cultured using the D-MEM/F-12 (1:1) mixed medium (GIBCO BRL) containing 10% fetal calf serum and 500 μg/ml G418 at 37° C. in the presence of 5% CO2. Effectene Transfection Reagent (QIAGEN) was used for gene introduction.
# (§6) A day prior to the gene introduction, cells were spread on a 6-well plate (NUNC) at 3×10^5 cells/well and 0.4 μg each of the rat BG-2 and BG2-2 expression vectors was introduced into them using 10 μl/well Effectene Transfection Reagent according to the attached manual. The cells were cultured at 37° C. in the presence of 5% CO2 for 48 hours.
# (§7) To isolate single cells into which the target gene was introduced, the cells were detached from a Petri dish by trypsin, and spread to a 96-well plate (NUNC) at 2000 to 250 cells/well. The cells were further cultured in selection medium containing hygromycin at 37° C. in the presence of 5% CO2 for 14 days. Wells containing cells consisting of a single colony were only selected and cells were passage-cultured to prepare a stable cell line. […] As a control, rat BG2-expressing cells were prepared in the same manner.
# [6] = biological target: T1, rat BG2-2; conditions: 10 μM forskolin; various histamine concentrations; 15 min; rat BG2-2-expressing cells
# Description: as §5, §6, §7
# [7] = system: control cells expressing nothing
# Description: The intracellular cAMP concentration was measured by the method of Zlokarmik et al. (Science, 1998, 279:84). In the method of Zlokarmik et al., intracellular cAMP concentration was measured by introducing the gene in which β-lactamase gene was ligated downstream of the sequence that increased transcription activity of a gene downstream thereof dependently on the increase of intracellular cAMP concentration (CRE: cAMP responsible element), and by measuring fluorescence changes in florescent substrates to which an activity of β-lactamase transcribed and translated by the change of cAMP concentration in the cells was added.
# Moreover, to measure the decrease of intracellular cAMP concentration mediated by the bound G protein in seven-transmembrane receptors, an activity of β-lactamase depending on the intracellular cAMP concentration was increased by adding forskolin and the decrease of cAMP in cells was measured with the decrease of β-lactamase activity when a ligand was reacted.
# The cells in which the above reporter gene and human BG2 were expressed were washed with PBS(−) buffer (GIBCO-BRL) twice, Cell-dissociation buffer (GIBCO-BRL) was added thereto, and the cells were warmed at 37° C. in a CO2 incubator for 3 min and dissociated from a flask by gently tapping the incubation flask. […]
# T2 sequence (Q9Y5N1 1-453 isoform Q9Y5N1-2): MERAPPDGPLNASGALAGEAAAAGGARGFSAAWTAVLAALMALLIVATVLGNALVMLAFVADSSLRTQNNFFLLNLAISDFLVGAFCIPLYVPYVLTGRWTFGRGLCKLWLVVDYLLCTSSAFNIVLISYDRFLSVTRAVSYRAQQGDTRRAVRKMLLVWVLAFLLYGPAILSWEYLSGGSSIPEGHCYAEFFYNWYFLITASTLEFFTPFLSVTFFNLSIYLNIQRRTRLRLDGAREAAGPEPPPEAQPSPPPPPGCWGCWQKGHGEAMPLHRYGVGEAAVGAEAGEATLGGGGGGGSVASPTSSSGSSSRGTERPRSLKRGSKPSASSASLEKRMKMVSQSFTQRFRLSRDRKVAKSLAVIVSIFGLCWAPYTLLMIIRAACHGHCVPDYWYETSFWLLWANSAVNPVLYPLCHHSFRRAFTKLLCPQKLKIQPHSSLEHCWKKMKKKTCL
# T1 sequence (Q9QYN8 whole entry): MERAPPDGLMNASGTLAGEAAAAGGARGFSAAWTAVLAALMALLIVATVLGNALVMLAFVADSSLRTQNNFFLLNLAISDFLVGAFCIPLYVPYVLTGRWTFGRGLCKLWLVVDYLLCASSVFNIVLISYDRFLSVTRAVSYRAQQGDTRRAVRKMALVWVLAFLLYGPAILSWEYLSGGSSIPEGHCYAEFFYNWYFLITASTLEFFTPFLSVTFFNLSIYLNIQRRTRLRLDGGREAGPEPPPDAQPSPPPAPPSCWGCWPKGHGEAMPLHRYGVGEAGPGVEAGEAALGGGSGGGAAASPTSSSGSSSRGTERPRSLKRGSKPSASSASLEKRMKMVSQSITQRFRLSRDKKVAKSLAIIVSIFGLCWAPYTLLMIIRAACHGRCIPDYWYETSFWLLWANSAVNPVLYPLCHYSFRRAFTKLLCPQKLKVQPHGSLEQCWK
# T3 sequence (Q9QYN8 1-413 isoform Q9QYN8-2): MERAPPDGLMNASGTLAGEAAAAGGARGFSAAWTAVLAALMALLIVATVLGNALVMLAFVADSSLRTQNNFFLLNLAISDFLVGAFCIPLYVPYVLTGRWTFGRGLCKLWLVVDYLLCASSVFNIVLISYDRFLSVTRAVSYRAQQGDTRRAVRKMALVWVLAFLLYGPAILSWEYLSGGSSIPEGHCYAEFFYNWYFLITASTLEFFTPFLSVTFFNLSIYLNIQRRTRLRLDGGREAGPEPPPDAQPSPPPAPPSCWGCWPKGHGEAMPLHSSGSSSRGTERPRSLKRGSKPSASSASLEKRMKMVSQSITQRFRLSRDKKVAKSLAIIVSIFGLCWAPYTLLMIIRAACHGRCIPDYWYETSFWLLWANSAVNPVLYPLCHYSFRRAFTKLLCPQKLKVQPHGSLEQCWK
smiles,measurement,setting,value
"CNCCc1c[nH]cn1.Cl.Cl [N-α-methylhistamine, Histamine, N-alpha-methyl-dihydrochloride]",Kd,"[1]; Rat BG2-2, COS7 membrane fraction, 30° C., 40 min, read-out: Binding Constant",0.582 ± 0.0261 nM
same,specific binding (in words),"[1]; rat BG2-2, nonspecific with 2 μM N-α-methylhistamine",specifically bound
same,Kd,"[2]; Human BG2, COS7 membrane fraction, 30° C., 40 min, read-out: Binding Constant",0.548 ± 0.0751 nM
same,specific binding (in words),"[2]; human BG2, nonspecific with 2 μM N-α-methylhistamine",specifically bound
same,Kd,"[3]; Rat BG2, COS7 membrane fraction, 30° C., 40 min, read-out: Binding Constant",0.503 ± 0.0198 nM
same,specific binding (in words),"[3]; rat BG2, nonspecific with 2 μM N-α-methylhistamine",specifically bound
C[N+](C)(C)CCOC(N)=O [carbachol],reduction of intracellular cAMP concentration (in words),[4],did not reduce intracellular cAMP concentration
NCCc1ccc(O)c(O)c1 [dopamine],reduction of intracellular cAMP concentration (in words),[4],did not reduce intracellular cAMP concentration
"Cl.Cl.NCCc1c[nH]cn1 [histamine, Histamine dihydrochloride]",decrease of intracellular cAMP concentration (in words),[5],"decrease of intracellular cAMP concentration, dependent on histamine concentration, was confirmed"
same,decrease of intracellular cAMP concentration (in words),[6],"decrease of intracellular cAMP concentration, dependent on histamine concentration, was confirmed"
same,reduction of intracellular cAMP concentration (in words),[7],not observed
same,reduction of intracellular cAMP concentration (in words),[4],intracellular cAMP concentration was decreased
same,ratio of EM460/EM530 relative to the control,"[4]; control = 100, absence of forskolin = 0",35%
NCCc1c[nH]c2ccc(O)cc12 [serotonine],reduction of intracellular cAMP concentration (in words),[4],did not reduce intracellular cAMP concentration
